Measured values: patent publication US10799590B2, “Compositions containing a bitter tastant and at least one sophorolipid, and methods of reducing bitter taste attributed to a bitter tastant in an edible composition” (The United States of America, as Represented by the …, priority 2015, dated 2020)
“Also recorded” adds a separate entry of the source.

Test system: T1R3
Assay: Chorda tympani whole-nerve responses to lingual taste stimuli, T1R3-KO mice
Assay type: in vivo
Settings: lingual application (FIG. 6A, 7)
Procedure: Mouse model for sweet property and bitter-masking assay. Recordings of chorda tympani (CT) whole-nerve responses: All protocols involving animals were approved by the Institutional Animal Care and Use Committees at the Monell Center prior to the experiments. The study was performed with mice from two strains: C57BL/6J inbred strain (B6; Jackson Laboratory, Bar Harbor, Me.) bearing the wild-type Tas1r3 allele was used as the control, and the C57BL/6J-Tas1r3^tm1Rjm “gene-knockout” strain (T1R3-KO) lacking the entire T1R3 coding region and devoid of T1R3 protein ([…]., et al., Science, 301: 850-853 (2003)). Afferent signals from taste cells are relayed to the brain via three major gustatory nerves: the chorda tympani, glossopharyngeal, and greater superficial petrosal. […] Neural responses resulting from chemical stimulations of the tongue were fed into an amplifier (Grass Instruments, West Warwick, R.I.) and monitored on an oscilloscope and an audio monitor. Whole-nerve responses were integrated with a time constant of 1.0 s and recorded using a computer for later analysis using a PowerLab system (PowerLab/sp4; AD Instruments, Colorado Springs, Colo.). […] To analyze nerve responses to each stimulus, the magnitudes of integrated responses at 5, 10, 15, 20, and 25 s after stimulus onset were measured and averaged. […]

With OC[C@H]1O[C@@H](O[C@@H]2[C@@H](O)[C@H](O)[C@@H](CO)O[C@H]2O)[C@H](O)[C@@H](O)[C@@H]1O [Sophorose, 2-O-β-D-glucopyranosyl-β-D glucopyranose] as the molecule, how does the chorda tympani responses read?
Its chorda tympani responses is “serious deficit; also recorded: nearly absent”.
